Experimental data as given in ChEMBL document CHEMBL5149996, “Structure-Based Optimization and Discovery of M3258, a Specific Inhibitor of the Immunoproteasome Subunit LMP7 (β5i)” (J Med Chem, 2021).
pIC50: −log10 of the molar value. Activity calls are given as the source filed them. The rule behind the calls is not given here.

Legend:
[1] = target: T1, Proteasome subunit beta type-9 (Homo sapiens, UniProt P28065); assay: Inhibition of human 20S immunoproteasome beta-1i subunit using (Ac-PAL)2R110 as substrate preincubated for 2 hrs followed by substrate addition and measured after 1 hr by fluorescence intensity assay
T1 sequence (P28065 whole entry): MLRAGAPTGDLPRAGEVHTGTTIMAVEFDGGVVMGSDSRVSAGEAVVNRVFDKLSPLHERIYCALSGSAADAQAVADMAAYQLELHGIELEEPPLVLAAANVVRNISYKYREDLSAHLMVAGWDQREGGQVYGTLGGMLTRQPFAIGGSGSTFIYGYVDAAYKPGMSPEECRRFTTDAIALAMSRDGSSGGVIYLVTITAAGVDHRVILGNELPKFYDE

[2] = target: T2, Proteasome subunit beta type-8 (Homo sapiens, UniProt P28062); assay: Inhibition of human 20S immunoproteasome beta-5i subunit using Suc-LLVY-AMC as substrate preincubated for 2 hrs followed by substrate addition and measured after 1 hr by fluorescence intensity assay
T2 sequence (P28062 whole entry): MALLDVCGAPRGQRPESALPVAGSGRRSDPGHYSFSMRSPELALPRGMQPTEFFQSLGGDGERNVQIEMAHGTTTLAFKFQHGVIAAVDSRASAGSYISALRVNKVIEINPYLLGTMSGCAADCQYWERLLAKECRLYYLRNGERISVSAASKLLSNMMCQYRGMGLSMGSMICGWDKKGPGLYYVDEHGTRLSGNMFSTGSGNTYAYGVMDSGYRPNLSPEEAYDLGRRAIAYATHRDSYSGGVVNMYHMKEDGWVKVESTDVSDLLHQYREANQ

[3] = target: T3, Proteasome subunit beta type-6 (Homo sapiens, UniProt P28072); assay: Inhibition of human 20S […] beta1 subunit using Ac-nLPnLD-AMC as substrate preincubated for 2 hrs followed by substrate addition and measured after 1 hr by fluorescence intensity assay
T3 sequence (P28072 whole entry): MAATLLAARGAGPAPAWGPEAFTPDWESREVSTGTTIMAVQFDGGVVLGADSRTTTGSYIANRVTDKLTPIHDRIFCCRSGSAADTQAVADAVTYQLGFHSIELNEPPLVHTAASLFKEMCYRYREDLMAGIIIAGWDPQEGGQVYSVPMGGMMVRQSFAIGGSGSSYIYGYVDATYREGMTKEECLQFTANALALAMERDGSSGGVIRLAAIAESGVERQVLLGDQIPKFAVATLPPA

[4] = target: T4, Proteasome subunit beta type-7 (Homo sapiens, UniProt Q99436); assay: Inhibition of human 20S proteasome beta2 subunit using Ac-RLR-AMC as substrate preincubated for 2 hrs followed by substrate addition and measured after 1 hr by fluorescence intensity assay
T4 sequence (Q99436 whole entry): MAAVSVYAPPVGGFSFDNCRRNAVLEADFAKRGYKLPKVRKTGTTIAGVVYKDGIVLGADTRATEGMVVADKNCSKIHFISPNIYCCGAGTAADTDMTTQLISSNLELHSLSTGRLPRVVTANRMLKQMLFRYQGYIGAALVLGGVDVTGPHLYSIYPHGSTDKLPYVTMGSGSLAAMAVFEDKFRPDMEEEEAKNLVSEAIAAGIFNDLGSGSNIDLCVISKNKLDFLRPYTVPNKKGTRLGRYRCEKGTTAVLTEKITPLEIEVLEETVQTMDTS

[5] = target: T5, Proteasome Macropain subunit MB1 (Homo sapiens, UniProt P28074); assay: Inhibition of human 20S proteasome beta5 subunit using Suc-LLVY-AMC as substrate preincubated for 2 hrs followed by substrate addition and measured after 1 hr by fluorescence intensity assay
T5 sequence (P28074 whole entry): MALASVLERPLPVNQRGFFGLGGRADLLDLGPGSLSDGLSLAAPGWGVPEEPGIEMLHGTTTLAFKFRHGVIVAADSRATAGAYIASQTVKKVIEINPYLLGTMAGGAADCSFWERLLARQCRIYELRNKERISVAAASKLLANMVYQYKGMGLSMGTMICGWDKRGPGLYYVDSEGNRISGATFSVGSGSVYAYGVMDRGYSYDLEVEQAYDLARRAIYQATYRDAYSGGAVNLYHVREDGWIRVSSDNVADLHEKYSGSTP

[6] = target: T2, Proteasome subunit beta type-8; assay: Inhibition of 20S immunoproteasome beta-5i subunit in human PBMC using Ac-ANW-luciferin substrate preincubated for 2 hrs followed by substrate addition and measured after 30 mins by luminometric analysis; type: cell-based
Homo sapiens = species on record: Homo sapiens; assay: Selectivity ratio of IC50 for inhibition of 20S proteasome beta5 subunit in human A549 cells to IC50 for inhibition of 20S immunoproteasome beta-5i subunit in human PBMC; type: cell-based
[7] = Lipophilicity, log P of the compound; type: physicochemical; settings: octanol/water
[8] = Distribution coefficient, log D of the compound; type: physicochemical; settings: octanol/water
[9] = Kinetic solubility of the compound; type: physicochemical; settings: read-out: Kinetic_solubility
[10] = Intrinsic clearance in human liver microsomes measured per mg protein; type: ADME, Microsome
[11] = Volume of distribution at steady state in iv dosed mouse; type: ADME, organism-based; settings: in vivo, read-out: Vdss
[12] = Clearance in mouse hepatocytes measured per million of cells; type: ADME, cell-based, Hepatocyte; settings: read-out: CLH
[13] = Cytotoxicity against human HepG2 cells assessed as depletion of ATP content incubated for 48 to 72 hrs by CellTiter-Glo luminescent assay; type: toxicity, cell-based
[14] = test system: 20S immunoproteasome beta-5i subunit; assay: Selectivity ratio of IC50 for cytotoxicity against human HepG2 cells to IC50 for inhibition of 20S immunoproteasome beta-5i subunit in human PBMC; type: toxicity, cell-based; settings: read-out: Ratio IC50
U-266 [15] = assay: Antitumor activity against human U266B1 cells xenografted in H2d Rag2 mouse assessed as reduction in tumor volume at 1 mg/kg, po administered once daily and measured for 21 days; type: functional, organism-based; settings: time 21.0 day
[16] = Toxicity in H2d Rag2 mouse xenografted with human U266B1 cells assessed as change in body weight at 0.3 to 1 mg/kg, po administered once daily and measured for 21 days; type: organism-based, U-266; settings: in vivo, 504 h, dose 0.3-1 mg/kg, time 21 day
U-266 [17] = assay: In vivo inhibition of LMP7 activity in tumor lysates of H2d Rag2 mouse xenografted with human U266B1 cells at 1 mg/kg, po administered as single dose using (Ac-ANW)2R110 as substrate measured up to 14 hrs by fluorescence intensity assay; type: functional, organism-based; settings: Neoplasm
U-266 [18] = assay: In vivo inhibition of LMP7 activity in tumor lysates of H2d Rag2 mouse xenografted with human U266B1 cells at 0.3 mg/kg, po administered as single dose using (Ac-ANW)2R110 as substrate measured after 1 to 6 hrs by fluorescence intensity assay; type: functional, organism-based; settings: Neoplasm, time 1-6 hrs
[19] = Oral bioavailability in mouse at 10 mg/kg; type: ADME, organism-based; settings: in vivo

O=C(N[C@@H](Cc1coc2ccccc12)B(O)O)[C@@H]1C[C@H]2CC[C@@H]1O2
pIC50 [1]: < 4.52
pIC50 [2]: 8.44
pIC50 [3]: < 4.52
pIC50 [4]: < 4.52
pIC50 [5]: 5.60
pIC50 [6]: 8.47
Ratio IC50 (Homo sapiens): 305
logP [7]: 2.34
logD [8]: 1.1
solubility kinetic [9]: > 200 µM
CLH [10]: < 10 µL/min/mg
Vd [11]: 0.47 L/kg
hepatocyte CLint [12]: 15 µL/min/1e6 cells
pIC50 [13]: 4.32
selectivity ratio [14]: 10000
Activity (U-266 [15]): Active
Activity [16]: Non-Toxic
inhibition (U-266 [17]): Active
inhibition (U-266 [18]): Active
bioavailability [19]: 35%
